{"source": "ChEMBL document CHEMBL4406848", "about": "“Novel water soluble BODIPY compounds: Synthesis, photochemical, DNA interaction, topoisomerases inhibition and photodynamic activity properties” (Eur J Med Chem, 2019)", "key": {"[1]": {"test": "Induction of singlet oxygen generation in DMSO solution assessed as singlet oxygen quantum yield by measuring reduction in DPBF irradiated with 650 nanometer laser light", "format": "functional"}, "[2]": {"test": "Induction of singlet oxygen generation in TBS solution assessed as singlet oxygen quantum yield by measuring reduction in ADMA irradiated with 650 nanometer laser light", "format": "functional"}}, "data": [{"smiles": "CN(C)c1ccc2nc3ccc(=[N+](C)C)cc-3sc2c1", "values": [{"measurement": "Activity", "setting": "[1]", "result": 0.57}, {"measurement": "Activity", "setting": "[2]", "result": 0.52}]}]}
